# In patent publication US5192507A (priority 1991, dated 1993):
# Where “and” joins values, the source holds several entries; their conditions need not be identical. Equal entries are not always repeated.
# Tests used:
# [1] = test system: acetylcholine receptor (AChR); format: binding, Electrophorus electricus
# [2] = test system: acetylcholine receptor (AChR); format: binding, Electrophorus electricus; remark: listed apart in the source
# opiate receptor (OpR) = format: binding, rat
molecule,measurement,setting,value
Triton ™ X-100,increase in retention of binding activity of AChR,[1],more than 90%
CCCCCCCC[N+](C)(C)CCCS(=O)(=O)[O-] [Zwittergent ™ 3-08],% Activity Increase (AChR membrane activity),[1],55%
OC[C@H]1OC(O)[C@H](O)[C@@H](O)[C@@H]1O (stereo partly shown) [Glucose],% Change with respect to control sensor,[2],3% and 0% and 6% and 5%
same,change in resistance between control and AChR sensors (in words),[2],no change
CCCCCCCCCC[N+](C)(C)CCCS(=O)(=O)[O-] [Zwittergent ™ 3-10],% Activity Increase (AChR membrane activity),[1],13%
CN1CC[C@]23CCCC[C@H]2[C@H]1Cc1ccc(O)cc13 [Levorphanol],Δ% (difference between resistance changes of test and control chips),opiate receptor (OpR),10%
same,ΔK.OMEGA. (change in resistance across the biosensor circuit),opiate receptor (OpR),-160
